Test results reported in patent US10808003B2, “Amphipathic molecule based on tandem malonate and use thereof” (Industry-University Cooperation Foundation Hanyang …, priority 2017, dated 2020).

Columns and labels:
[1] = molecular target: T1, melibiose permease (MelBSt) (Salmonella typhimurium, UniProt P30878); assay: MelBSt extraction and solubility at four temperatures, SDS-PAGE and western blotting; format: biochemical; conditions: 1.5 wt %, 90 minutes
T1 construct: made in house; host or cells: E. coli DW2 cells (melB and lacZY), plasmid pK95AHB/WT MelBSt/CH10
Description: An experiment was performed to measure structural stability of Salmonella typhimurium melibiose permease (MelBSt) protein by TMGs. The MelBSt protein was extracted from a membrane using TMGs or DDM, and then an amount of the extracted protein and its structure were analyzed by SDS-PAGE and western blotting. A concentration of the amphipathic molecule used was 1.5 wt %, and two types of performance such as protein extraction efficiency and stabilization ability of the compound were simultaneously evaluated by extracting the protein at four temperatures (0, 45, 55, and 65° C.), incubating the protein for 90 minutes at the same temperatures, and measuring an amount of the protein remaining dissolved in an aqueous solution. The amount of the protein extracted and stabilized by each amphipathic molecule was expressed as a relative value (%) with respect to a total amount of the protein contained in a membrane sample not treated with an amphipathic molecule.
Specifically, Salmonella typhimurium MelBSt (melibiose permease) having a 10-His tag at the C-terminus was expressed in E. coli DW2 cells (melB and lacZY) using plasmid pK95AHB/WT MelBSt/CH10. According to the method disclosed in the article written by A. S. Ethayathulla et al. (Nat. Commun. 2014, 5, 2009), cell growth and membrane preparation were performed. A protein assay was performed using a Micro BCA kit (Thermo Scientific, Rockford, Ill.). Using the protocol disclosed in Nat. Methods 2010, 7, 1003-1008 written by P. S. Chae et al., DDM or TMGs were evaluated for MelBSt stability. A MelBSt-containing membrane sample (the final protein concentration was 10 mg/mL) was incubated at four temperatures (0, 45, 55 and 65° C.) for 90 minutes in a 1.5% (w/v) DDM or TMG-containing solubilization buffer (20 mM sodium phosphate, pH 7.5, 200 mM NaCl, 10% glycerol, 20 mM melibiose). To remove insoluble material, ultracentrifugation was performed using a Beckman Optima™ MAX ultracentrifuge equipped with a TLA-100 rotor at 355,590 g at 4° C. for 45 minutes, and then 20 μg of each protein sample was separated using SDS-15% PAGE, followed by immunoblotting using a Penta-His-HRP antibody (Qiagen, Germantown, Md.). MelBSt was measured by an ImageQuant LAS 4000 biomolecular imager (GE Health Care Life Sciences) using a SuperSignal West Pico chemiluminescent substrate.

[2] = Critical micelle concentration by fluorescent staining with diphenylhexatriene (DPH); format: physicochemical; conditions: aqueous solution
Description: A method of measuring CMC is not particularly limited, and any method well known in the art, for example, a fluorescent staining method using diphenylhexatriene (DPH) may be used.
(§1) Specifically, a CMC was measured using fluorescent staining and diphenylhexatriene (DPH), and the hydrodynamic radii (Rh) of micelles formed by each agent (1.0 wt %) were measured by a DLS test. The measured results were compared with those for the conventional amphipathic molecule (detergent), DDM, and thus are shown in Table 1.

[3] = system: T2, light harvesting complex I and reaction center (LHI-RC) complex; assay: Stability of LHI-RC complex in amphipathic molecule, UV-visible spectrum over 20 days; format: biochemical, Rhodobacter capsulatus; conditions: CMC+0.04 wt % or CMC+0.2 wt %, 20 days at room temperature, FIGS. 7 and 8
T2 construct: His tag (only implied by the Ni-NTA / His-SpinTrap purification); made in house
Description: The super-assembly of R. capsulatus expressed in manipulated R. capsulatus strains was solubilized and purified according to a protocol disclosed in previous literature (P. S. Chae, Analyst, 2015, 140, 3157-3163.). A 10 mL aliquot of a frozen membrane was thawed, and homogenized using a glass tissue homogenizer at room temperature. The homogenate was incubated for 30 minutes at 32° C. under gentle agitation. After addition of 1.0 wt % DDM, the homogenate was further incubated for 30 minutes at 32° C. Following ultracentrifugation, a supernatant containing a solubilized light harvesting complex I and reaction center (LHI-RC) complex was collected, and incubated with an Ni^2+-NTA resin for 1 hour at 4° C. The resin was added to each 10 His-SpinTrap column, and then the resulting product was washed with 500 μL of a coupling buffer (10 mM Tris (pH 7.8), […], 1×CMC DDM) twice. The LHI-RC complex purified by DDM was eluted from the column using a buffer containing 1.0 M imidazole (2×300 μL). […] Protein stability was measured at regular intervals while a protein-amphipathic molecule sample was incubated by measuring the UV-visible spectrum of a specimen in a range of 650 to 950 nm.

[4] = system: LeuT (leucine transporter); assay: LeuT stability by [3H]-Leu substrate binding, scintillation proximity assay (SPA); format: biochemical, Aquifex aeolicus; conditions: TMMs or DDM at CMC+0.04 wt %, incubation at room temperature, FIG. 13a
Description: An experiment of measuring LeuT protein stability for TMGs and TMMs was performed. (a) CMC+0.04 wt % or (b) CMC+0.2 wt % of each amphipathic molecule was used, and the evaluation of the LeuT protein stability was performed by taking an advantage of a characteristic of LeuT binding to a substrate through a scintillation proximity assay (SPA) using [^3H]-Leu. […]
Specifically, wild type LeuT (leucine transporter) derived from a thermophilic bacterium, Aquifex aeolicus, was purified by a previously-disclosed method (G. Deckert et al., Nature 1998, 392, 353-358). LeuT was expressed in E. coli C41 (DE3) transformed with pET16b encoding a C-terminus 8×His-tagged transporter (the expression plasmid was provided by Dr E. Gouaux, Vollum Institute, Portland, Oreg., USA). In summary, following isolation of a bacterial membrane and lysis with 1% (w/v) DDM, the protein was allowed to bind to a Ni^2+-NTA resin (Life Technologies, Denmark), and eluted in 20 mM Tris-HCl (pH 8.0), 1 mM NaCl, 199 mM KCl, 0.05% (w/v) DDM and 300 mM imidazole. Afterward, the purified LeuT (approximately 1.5 mg/ml) was diluted with the same buffer used above, from which DDM and imidazole were removed, and then supplemented with TMGs or DDM at the final concentration of CMC+0.04% (w/v). […] SPA was performed using a buffer containing 450 mM NaCl and each of the TMGs and TMMs at the predetermined concentration. The SPA reaction is performed in the presence of 20 nM [^3H]-Leucine and 1.25 mg/ml copper chelate (His-Tag) YSi beads (Perkin Elmer, Denmark). A total [^3H]-Leucine binding degree of each sample was measured using a MicroBeta liquid scintillation counter (Perkin Elmer).

[5] = Hydrodynamic radius of micelles by dynamic light scattering (DLS); format: physicochemical; conditions: micelles formed by each agent at 1.0 wt %
Description: A method of measuring the radius of the micelles is not particularly limited, and any method well known in the art, for example, a DLS test may be used.
as §1

With `CCCCCCCCCCCCO[C@@H]1O[C@H](CO)[C@@H](O[C@H]2O[C@H](CO)[C@@H](O)[C@H](O)[C@H]2O)[C@H](O)[C@H]1O` [DDM, n-dodecyl-β-D-maltopyranoside, reference compound] the “amount of MelBSt solubilized / extraction efficiency” value ([1]; 0° C.) was “slightly more excellent protein extraction efficiency than TMGs”, the MelBSt remaining solubilized ([1]; 55° C.) was 10% and the “MelBSt protein dissolved in aqueous solution” value ([1]; 65° C.) was “not detected”. For the same compound, the “CMC” value [2] was about 0.17 mM, the “CMC (wt %)” value [2] was about 0.0087 wt % and the “stability of the LHI-RC complex” value [3] was “significantly reduced complex stabilization as the concentration increased from CMC+0.04 wt % to CMC+0.2 wt %”. The “activity of LeuT over time” value [4] was “gradually reduced over time” and the “Rh (nm), hydrodynamic radius of micelles” value [5] was 3.4 ± 0.03 nm.
